Data set [1] relates to BRIN-BD11 beta-cells. Put plainly: Beta-cell proliferation, Ki-67 staining, BRIN-BD11. The following applies: BRIN BD11, 10^-8 and 10^-6 M, n = 3. The format is cell-based, rodent.
The test system of a further data set is 1.1B4 beta-cells. Description: Beta-cell proliferation, Ki-67 staining, 1.1B4. In kind it is cell-based, human. Particulars: 1.1B4, 10^-8 and 10^-6 M, n = 3.
The next data set concerns DPP-4. Put plainly: 50 mM triethanolamine/HCl. Particulars: 37°C, up to 8 hours.
Data set [2] deals with BRIN-BD11 beta-cells. Description: In vitro insulin secretion from BRIN-BD11 beta-cells. In kind it is cell-based, rodent. The following applies: peptides 10^-12-10^-6 M, 20-minute incubation, insulin radioimmunoassay, n = 8, vs 16.7 mM glucose.
Data set [3] concerns BRIN-BD11 beta-cells. Description: Protection against cytokine-induced apoptosis, TUNEL, BRIN-BD11. The format is cell-based, rodent. The following applies: n = 3.

No end group written: not given here.

As to “GLP-1: GLP-1 positive control (HAEGTFTSDVSSYLEGQAAKEFIAWLVKGR; ends and bridges not checked; UniProt P01275 98-127, looked up) [reference compound]”, the “beta-cell proliferation vs control cultures” value in the data set with BRIN-BD11 beta-cells [1] and with 1.1B4 beta-cells was “significantly (P < .05 to P < .001) increased” each time.

In the case of “YPIKPEAPGEDK(PAL)SPEELNRYYASLRHYLNLVTRQRY”, in the data set with DPP-4, the fragment found entry is reported as “PYY(3-36)(Lys^12PAL), 8 h”.

As for “YPIKPEAPGEDK(PAL)SPEELNRYYASLRHYLNLVTRQRY [PYY(1-36)(Lys^12PAL)]”, the “insulin secretion at 16.7 mM glucose (GSIS)” value with BRIN-BD11 beta-cells [2] is given as “had no impact on GSIS”. In addition, the “beta-cell proliferation vs control cultures” value in the data set with 1.1B4 beta-cells is reported as “significantly increased (P < .05 to P < .01) the proliferation of both beta-cell lines”. The “cytokine-induced apoptosis vs cytokine cocktail control” value with BRIN-BD11 beta-cells [3] (BRIN BD11, 10^-8 M only, cytokine cocktail) is on record as “barring PYY(1-36)(Lys^12PAL) at 10^-8 M”; in the data set on BRIN-BD11 beta-cells [3] (BRIN BD11, 10^-8 and 10^-6 M, cytokine cocktail (IL-1β, IFNγ, TNFα)), “offered some protection against apoptosis”. The “protection against apoptosis compared with PYY(1-36)” value in the data set with BRIN-BD11 beta-cells [3] (BRIN BD11, same concentration, cytokine cocktail) is “significantly (P < .05 to P < .01) less efficacious”.

The values above are taken from paper PMC6580715 (Clinical Medicine Insights. Endocrinology and Diabetes, 2019).
